Bridges are numbered along the chain shown (N, C = ends). Where no end group is shown, it is not given here.
B1: β-chain of FSH: β-chain (β-subunit) of follicle stimulating hormone (protein)
chain: NSCELTNITIAIEKEECRFCISINTTWCAGYCYTRDLVYKDPARPKIQKTCTFKELVYETVRVPGCAHHADSLYTYPVATQCHCGKCDSDSTDCTVRGLGPSYCSFGEMKE

Columns and labels:
[1] = system: anti-β-FSH monoclonal antibodies 22A3G7; 5H3E8; assay: Recognition by anti-β-FSH monoclonal antibodies 22A3G7 and 5H3E8; assay type: binding; details: antibodies immunoreactive with metrodine and ovarian extracts
[2] = system: anti-β-FSH monoclonal antibody 7G5A1; assay: Reaction with anti-β-FSH monoclonal antibody 7G5A1; assay type: binding; details: antibody only recognizing metrodine
[3] = system: anti-ovary antibodies (AOA); assay: ELISA on 30 patient sera: correlation of serum reactivity toward crude ovarian antigen and toward each peptide (Example 2); assay type: binding, human; details: for correlation between reactivity of sera toward ovarian antigen and toward the antigen tested, in words / r value, correlation between reactivity of sera toward ovarian antigen and toward the peptide, IgA AOA / r value, correlation between reactivity of sera toward ovarian antigen and toward the peptide, IgG AOA / r value, correlation between reactivity of sera toward ovarian antigen and toward the peptide, IgM AOA: 30 sera from patients, ELISA; for correlation between reactivity of sera toward ovarian antigen and toward the antigen tested, in words: compared among antigens; for antigenic or immunogenic activity toward anti-ovary antibodies, in words: comparison among oligopeptides, Example 2; for r value, correlation between reactivity of sera toward ovarian antigen and toward the peptide, IgA AOA: isotype IgA; for r value, correlation between reactivity of sera toward ovarian antigen and toward the peptide, IgG AOA: isotype IgG; for r value, correlation between reactivity of sera toward ovarian antigen and toward the peptide, IgM AOA: isotype IgM
Procedure: (§1) The concentration of molecules to be adsorbed was determined by checkerboard experiments for each antigen. It is about 1 μg per well.
(§2) The binding of the antigens to the solid phase is performed in one night at +4° C. in the amount of 100 μl per well of the solution of antigen in carbonate-bicarbonate buffer. The plate is emptied. The sites of the solid phase still unoccupied are saturated on incubation for one hour at 37° C. with 200 μl per well of 5% powdered milk reconstituted in PBS.
The plate is emptied and washed 3 times in PBS. The samples are distributed in the amount of 100 μl per well. The plate is incubated for 45 minutes at 37° C.
(§3) The anti-isotypes are diluted in the same solution that was used for the dilution of the samples:
(§4) The plate is again emptied and washed 3 times in PBS. Then the anti-isotypes are distributed in the amount of 100 μl per well. The plate is incubated for 45 minutes at 37° C.
(§5) The developer solution is prepared on the spot, as follows for one plate:
(§6) After 3 further washings of the plate, 100 μl of developer solution are distributed into each well. After appearance of a yellow colour of greater or lesser intensity the reaction is stopped with 50 μl of H2SO4. The plate is read on the spectrophotometer at 492 nm using the Multiskan II reader.
Any ratio greater than 1 is considered as positive.
These four peptides obtained in lyophilized form were, after reconstitution and dialysis, used as antigens in a series of ELISA tests on 30 sera from patients.
Moreover, these same sera were tested against the crude ovarian antigens.
The immunoenzymatic technique used is that described in Example 1.

anti-ovary antibodies = assay: Recognition by serums containing anti-ovary antibodies; assay type: binding
[4] = system: anti-ovary antibodies (AOA); assay: ELISA on 295 sera of IVF patients: correlation of reactivity toward total ovarian extract and toward peptide SEQ ID NO:1 (Example 3); assay type: binding, human; details: for r value, IgA AOA vs IgA SEQ ID No.1: crude ovarian antigen IgA vs peptide IgA
Procedure: as §1, §2
The samples to be tested are diluted in PBS to which 0.5% BSA and 0.2% Tween 20 have been added: dilution to 1/50 for the search for anti-ovary and anti-corpus luteum antibodies. The plate is emptied and washed 3 times in PBS. The samples are distributed in the amount of 100 μl per well. The plate is incubated for 45 minutes at 37° C.
as §3, §4, §5, §6
The results are firstly expressed as optical density (O.D.) then calculated as ratios relative to a control sample at the limit of positivity. Any ratio greater than 1 is considered as positive.
[…] and ninety-five sera were tested in duplicate, using the immunoenzymatic method described above, with, firstly, the total ovarian extract, and, secondly, the peptide SEQ ID NO: 1. For each antigen, the three immunoglobulin isotypes IgG, IgA and IgM were studied.
The patients included in the study were all scheduled for IVF. Their average age was 32.7±4.2 years. The average duration of the sterility was 4.8±2.8 years.
In 209 cases the serum was collected on the eighth day of the stimulation, and in 84 cases the serum was collected 15 days after the puncture.
The results of the correlation obtained between the reactivity of the sera toward the crude ovarian antigen and that of the same sera toward the peptide SEQ ID NO:1 tested, and expressed by an r value, are shown in Table II below: […]

| Molecule | recognition by anti-β-FSH monoclonal antibodies 22A3G7; 5H3E8 [1] | reaction with anti-β-FSH monoclonal antibody 7G5A1 [2] | correlation between reactivity of sera toward ovarian antigen and toward the antigen tested, in words [3] | antigenic or immunogenic activity toward anti-ovary antibodies, in words [3] | recognition by serums containing anti-ovary antibodies (anti-ovary antibodies) | r value, correlation between reactivity of sera toward ovarian antigen and toward the peptide, IgA AOA [3] | r value, correlation between reactivity of sera toward ovarian antigen and toward the peptide, IgG AOA [3] | r value, correlation between reactivity of sera toward ovarian antigen and toward the peptide, IgM AOA [3] | further results |
| --- | --- | --- | --- | --- | --- | --- | --- | --- | --- |
| TQCHCGKC (cysteine pairing not given here) [SEQ ID No.5] | recognized | does not react | same results as those obtained for the peptide SEQ ID No.1 | identical activity | recognized |  |  |  |  |
| SEQ ID No.2: sequence of 16 amino acids, bridged by a disulfide bond in position 5 and 7, amino acids 78-93 of the β-chain of FSH (VATQCHCGKCDSDSTD; disulfide 5-7) |  |  |  | weaker activity |  | 0.28 | 0.44 | 0.75 |  |
| SEQ ID No.1: linear sequence of 16 amino acids corresponding to the sequence of amino acids 78-93 of the β-chain of FSH (VATQCHCGKCDSDSTD; human FSH) | recognized | does not react | best correlation coefficients | identical activity | recognized | 0.46 | 0.74 | 0.81 | r value, IgA AOA vs IgA SEQ ID No.1 [4]: 0.11; r value, IgA AOA vs IgA SEQ ID No.1 ([4]; listed as SEQ ID NO:1): 0.10; r value, IgA AOA vs IgG SEQ ID No.1 ([4]; crude ovarian antigen IgA vs peptide IgG): 0.12; r value, IgA AOA vs IgM SEQ ID No.1 ([4]; crude ovarian antigen IgA vs peptide IgM): 0.01; r value, IgG AOA vs IgA SEQ ID No.1 ([4]; crude ovarian antigen IgG vs peptide IgA): 0.12; r value, IgG AOA vs IgG SEQ ID No.1 ([4]; crude ovarian antigen IgG vs peptide IgG): 0.18; r value, IgM AOA vs IgA SEQ ID No.1 ([4]; crude ovarian antigen IgM vs peptide IgA): 0.06; r value, IgM AOA vs IgG SEQ ID No.1 ([4]; crude ovarian antigen IgM vs peptide IgG): 0.10; r value, IgM AOA vs IgM SEQ ID No.1 ([4]; crude ovarian antigen IgM vs peptide IgM): 0.27 |
| SEQ ID No.4: sequence of 16 amino acids, bridged by a disulfide bond in position 7 and 10, amino acids 78-93 of the β-chain of FSH (VATQCHCGKCDSDSTD; disulfide 7-10) |  |  |  | weaker activity |  | 0.49 | 0.59 | 0.69 |  |
| SEQ ID No.3: sequence of 16 amino acids, bridged by a disulfide bond in position 5 and 10, amino acids 78-93 of the β-chain of FSH (VATQCHCGKCDSDSTD; disulfide 5-10) |  |  |  | weaker activity |  | 0.49 | 0.79 | 0.71 |  |
| B1 |  |  | same results as those obtained for the peptide SEQ ID No.1 |  |  |  |  |  |  |

Source: US6602853B1, “Antigenic peptides reacting with anti-ovary antibodies” (Bio Merieux, priority 1996, dated 2003)
